This test has as its target TEAD2 (Homo sapiens (Human), UniProt Q15562). The test is described as follows: In vitro palmitoylation (TEAD2 autopalmitoylation, streptavidin blot). In kind it is biochemical. To be noted: compound at 10 μM. An outline of the steps: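 Autopalmitoylation read by streptavidin-HRP Western blot after CuSO4/TBTA/TCEP click with 100 μM biotin-azide, 1 h RT, with His-HRP probed separately. Before that, TEAD2 protein (GST or His6, 500 ng) given compound for 15 min then 1 μM alkyne palmitoyl-CoA for 30 min; percent inhibition versus DMSO-treated samples.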

The structures appear in SMILES notation.

Chain of TEAD2 (Q15562 whole entry): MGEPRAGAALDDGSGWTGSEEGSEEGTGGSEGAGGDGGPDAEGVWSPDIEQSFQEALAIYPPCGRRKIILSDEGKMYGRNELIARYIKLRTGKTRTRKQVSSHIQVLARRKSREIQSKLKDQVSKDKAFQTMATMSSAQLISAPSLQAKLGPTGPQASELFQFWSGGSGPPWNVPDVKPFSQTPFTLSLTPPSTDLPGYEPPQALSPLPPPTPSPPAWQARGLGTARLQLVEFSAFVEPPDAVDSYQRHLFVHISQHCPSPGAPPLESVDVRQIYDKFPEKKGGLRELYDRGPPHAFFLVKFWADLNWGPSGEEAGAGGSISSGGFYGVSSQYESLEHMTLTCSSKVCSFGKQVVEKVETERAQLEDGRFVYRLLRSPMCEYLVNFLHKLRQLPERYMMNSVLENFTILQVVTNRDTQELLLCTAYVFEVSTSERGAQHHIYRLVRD

Consider `CN(c1ccc(Nc2ncccc2C(=O)O)cc1)c1ccc(C(F)(F)F)cc1` [CP-541], for which the inhibition at 10 µM (Table 3) stood at 80%.
For `O=C(Nc1ccc(Nc2ncccc2C(=O)O)cc1)Nc1ccc(C23CC4CC(CC(C4)C2)C3)cc1` [Compound 180], the inhibition at 10 µM (Table 2) is 81%.
Same read-out and setting: next, `CCN(c1ccc(N(C)c2ccc(C34CC5CC(CC(C5)C3)C4)cc2)cc1)c1ccccc1C(=O)O` [Compound 171]: 75%.
For the compound `COc1ccc(Nc2ccc(N(C)c3cc(Cl)cc(Cl)c3)cc2)c(C(=O)O)c1` [CP-612], the inhibition at 10 µM (Table 3) is 86%.
Consider `O=C(O)c1ccccc1C(=O)Nc1ccc(Nc2ccc(C34CC5CC(CC(C5)C3)C4)cc2Cl)cc1` [compound 286, 2-((4-(4-((3r,5r,7r)-adamantan-1-yl)-2-chlorophenyl)amino)phenyl)carbamoyl) benzoic acid], for which, where the note is “Table 2, listed as 293”, the “% of inhibition of TEAD2 palmitoylation at 10 μM” value (from here on “% of inhibition … at 10 μM”) was 86%.
On to `COc1ccc(Nc2ccc(N(C)c3ccc(C(F)(F)F)cc3)cc2C)c(C(=O)O)c1` [CP-563], for which the inhibition at 10 µM (Table 3) came out at 80%.
Still for that read-out and setting: next, `COc1ccc(Nc2ccc(N(C)c3ccc(C4CCCCC4)nc3)cc2)c(C(=O)O)c1` [CP-578]: 31%; `CNS(=O)(=O)c1ccc(Nc2ccc(N(C)c3ccc(C4CCCCC4)cc3)cc2C)c(C(=O)O)c1` [CP-614]: 83%.
For `O=C(O)C1=C(C(=O)Nc2ccc(Nc3ccc(C45CC6CC(CC(C6)C4)C5)cc3Cl)cc2)CCC1` [compound 290], for the setting “Table 2”, the inhibition at 10 µM was determined as 69%.
Turning to `Cn1c(-c2ccc(Nc3ccc(C45CC6CC(CC(C6)C4)C5)cc3)cc2)nc2c(C(=O)O)cccc21` [Compound 199], the inhibition at 10 µM (Table 2) was 6%.
`COc1ccc(Nc2cc(Nc3ccc(C4CCCCC4)cc3)cc(C(F)(F)F)c2)nc1C(=O)O` [CP-661]: the inhibition at 10 µM (Table 3) amounted to 77%.
Regarding `O=C(Nc1ccc(C23CC4CC(CC(C4)C2)C3)cc1)c1ccc(Cl)c(Nc2ncccc2C(=O)O)c1` [Compound 247], the inhibition at 10 µM (Table 2) was 95%.
For the compound `O=C(CNc1ccc(Nc2ncccc2C(=O)O)cc1)Nc1ccc(C23CC4CC(CC(C4)C2)C3)cc1` [Compound 181], where the note is “Table 2”, the “% of inhibition … at 10 μM” value stood at 41% and the inhibition at 10 µM is 49%.
In the case of `CN(c1ccc(Oc2ccc(C34CC5CC(CC(C5)C3)C4)cc2)cc1)c1ncccc1C(=O)O` [Compound 196], the inhibition at 10 µM (Table 2) turned out to be 100%.
Same read-out and setting: next, `O=C(O)Cn1cc2cc(Nc3ccc(C45CC6CC(CC(C6)C4)C5)cc3Cl)ccc2n1` [Compound 110]: 85%; `O=C(Nc1ccccc1C(=O)O)c1ccc(Oc2ccc(C34CC5CC(CC(C5)C3)C4)cc2)cc1` [Compound 237]: 93%; `COc1cc(Nc2ccc(Nc3ccc(C45CC6CC(CC(C6)C4)C5)cc3)cc2)c(C(=O)O)c(OC)c1` [Compound 249]: 1%.
Same read-out and setting: for `Cc1ccccc1Nc1ccc(Nc2ccc(C34CC5CC(CC(C5)C3)C4)cc2)cc1` [Compound 13] the value was 26%; for `COC(=O)c1ccccc1Nc1cc(Nc2ccc(C34CC5CC(CC(C5)C3)C4)cc2)cc(C(F)(F)F)c1` [Compound 3], 0%; for `O=C(O)c1ncccc1Nc1ccc(Nc2ccc(C34CC5CC(CC(C5)C3)C4)cc2Cl)cc1` [Compound 82], 67%.
`O=C(O)c1cccnc1Nc1cccc(Nc2ccc(C34CC5CC(CC(C5)C3)C4)cc2Cl)c1` [Compound 114]: the inhibition at 10 µM (Table 2) amounted to 98%.
In the case of `Cc1cc(N(C)c2ccc(C3CCCCC3)cc2)ncc1Nc1ccc(OC2CC2)cc1C(=O)O` [CP-673], the inhibition at 10 µM (Table 3) turned out to be 15%.
The same measure, in the same setting: for `COc1ccc(Nc2ccc(N(C)c3ccc(C(F)(F)F)cc3)cc2)c(C#N)c1` [CP-608] the value was 43%.
`CN(C(=O)c1ccc(N(C)c2ccccc2C(=O)O)cc1)c1ccc(C23CC4CC(CC(C4)C2)C3)cc1` [Compound 149]: the inhibition at 10 µM (Table 2) is 40%.
For `CN(c1ccc(C23CC4CC(CC(C4)C2)C3)cc1)c1cc(N(C)c2ncccc2C(=O)O)cc(C(F)(F)F)c1` [Compound 152], the inhibition at 10 µM (Table 2) is 102%.
Same read-out and setting: next, `CN(c1cccc(N(C)c2ncccc2C(=O)O)c1)c1ccc(C23CC4CC(CC(C4)C2)C3)cc1Cl` [Compound 132]: 100%.
Turning to `O=C(Nc1ccc(C23CC4CC(CC(C4)C2)C3)cc1)c1cccnc1Nc1cccc(C(F)(F)F)c1`, the inhibition at 10 µM was 50%.
With `CN(c1ccc(Nc2ncccc2C(=O)O)cc1)c1ccc(C23CC4CC(CC(C4)C2)C3)cc1Cl` [Compound 142], the inhibition at 10 µM (Table 2) worked out at 65%.
Still for that read-out and setting: next, `O=C(Nc1ccc(C23CC4CC(CC(C4)C2)C3)cc1Cl)c1cccc(Nc2ncccc2C(=O)O)c1` [Compound 241]: 100%; `O=C(O)c1cccnc1Nc1ccc(S(=O)(=O)Nc2ccc(C34CC5CC(CC(C5)C3)C4)cc2)cc1` [Compound 188]: 101%; `O=C(Nc1ccccc1C(=O)O)c1ccc(Nc2ccc(C34CC5CC(CC(C5)C3)C4)cc2)cc1` [Compound 197]: 100%.
On the same count and under the same terms, next, `CC12CC3CC(C)(C1)CC(c1ccc(Nc4ccc(Nc5ccccc5C(=O)O)cc4)cc1)(C3)C2` [Compound 177]: 56%; `O=C(O)c1ccccc1Nc1ccc(S(=O)(=O)Nc2ccc(C34CC5CC(CC(C5)C3)C4)cc2Cl)cc1` [Compound 260]: 71%.
As for `CNC(=O)c1nc(Nc2ccc(N(C)c3ccc(C4CCCCC4)cc3)cc2C)ccc1S(=O)(=O)NC` [CP-653], the inhibition at 10 µM (Table 3) turned out to be 24%.
Take `O=C(O)c1cncc(Nc2cc(Nc3ccc(C45CC6CC(CC(C6)C4)C5)cc3Cl)cc(C(F)(F)F)c2)c1` [Compound 153]: for the setting “Table 2”, the inhibition at 10 µM is 100%.
Same read-out and setting: for `CNC(=O)c1ccccc1Nc1ccc(Nc2ccc(C34CC5CC(CC(C5)C3)C4)cc2Cl)cc1` [compound 276] the value was 52%; for `O=C(Nc1ccc(Nc2ccccc2C(=O)O)cc1)c1ccc(C23CC4CC(CC(C4)C2)C3)cc1` [Compound 157], 80%; for `O=C(O)c1cccnc1Oc1ccc(Nc2ccc(C34CC5CC(CC(C5)C3)C4)cc2Cl)cc1` [Compound 136], 99%.
Still for that read-out and setting: for `CC12CC3CC(C)(C1)CC(c1ccc(NS(=O)(=O)c4ccc(Nc5ccccc5C(=O)O)cc4)c(Cl)c1)(C3)C2` [Compound 264] the value was 0%.
As for `Cc1cc(C(=O)Nc2ccc(C3CCCCC3)cc2)ccc1Nc1cccc(C(=O)O)n1` [CP-642], the inhibition at 10 µM (Table 3) amounted to 55%.
As for `O=C(O)c1cnccc1Nc1ccc(Nc2ccc(C34CC5CC(CC(C5)C3)C4)cc2Cl)cc1` [Compound 75], where the note is “Table 2”, the inhibition at 10 µM stood at 63%.
For `O=C(OCC(O)CO)c1ccccc1Nc1ccc(Nc2ccc(C34CC5CC(CC(C5)C3)C4)cc2)cc1` (stereo not shown), the inhibition at 10 µM came out at 80%.
On to `O=C(O)c1cccc(Nc2cccc(Nc3ccc(C45CC6CC(CC(C6)C4)C5)cc3Cl)c2)n1` [Compound 150], for which the inhibition at 10 µM (Table 2) came to 100%.
Same read-out and setting: for `CN(C(=O)c1ccc(Nc2cccc(C(=O)O)n2)cc1)c1ccc(C23CC4CC(CC(C4)C2)C3)cc1` [Compound 206] the value was 52%.
For the compound `Cc1cc(N(C)c2ccc(C3CCCCC3)cc2)ccc1Nc1ccc(NC2CCOCC2)cc1C(=O)O` [CP-620], the inhibition at 10 µM (Table 3) stood at 0%.
Same read-out and setting: next, `N#Cc1cccc(Nc2ccc(Nc3ccc(C45CC6CC(CC(C6)C4)C5)cc3Cl)cc2)n1` [CP-688]: 17%.
For `CC12CC3CC(C)(C1)CC(c1ccc(NS(=O)(=O)c4ccc(Nc5ncccc5C(=O)O)cc4)c(Cl)c1)(C3)C2` [Compound 265], the inhibition at 10 µM (Table 2) came out at 78%.
Same read-out and setting: for `O=C(O)c1cccnc1Nc1ccc2c(c1)N(Cc1ccc(C34CC5CC(CC(C5)C3)C4)cc1Cl)CC2` [Compound 131] the value was 37%; for `CN(c1ccc(C#Cc2ccc(C34CC5CC(CC(C5)C3)C4)cc2)cc1)c1ccccc1C(=O)O` [Compound 191], 85%.
The same measure, in the same setting: next, `O=C(O)c1cccnc1Nc1ccc(Nc2ccc(C34CC5CC(CC(C5)C3)C4)cc2Cl)cc1` [Compound 59]: 99%.
On the same count and under the same terms, for `Cc1cc(Nc2ccc(C34CC5CC(CC(C5)C3)C4)cc2)cc(Nc2ncccc2C(=O)O)c1` [Compound 32] the value was 60%; for `O=C(O)c1ccccc1Nc1ccc(Nc2ccc(C34CC5CC(CC(C5)C3)C4)cc2)cc1C(F)(F)F` [Compound 80], 40%.
Regarding `COc1ccc(Nc2ccc(N(C)c3ccc(C(F)(F)F)c(Cl)c3)cc2)c(C(=O)O)c1` [CP-617], the inhibition at 10 µM (Table 3) turned out to be 76%.
As to `O=C(Nc1ccc(C23CC4CC(CC(C4)C2)C3)cc1Cl)c1ccc(Nc2ncccc2C(=O)O)cc1` [Compound 183], for the setting “Table 2”, the “% of inhibition … at 10 μM” value is 96% and the inhibition at 10 µM came out at 100%.
Take `CN(c1ccc(Nc2ccc(NS(C)(=O)=O)cc2C(=O)O)cc1)c1ccc(C(F)(F)F)cc1` [CP-613]: for the setting “Table 3”, the inhibition at 10 µM came out at 83%.
Turning to `CN(c1ccc(CC(=O)Nc2ccccc2C(=O)O)cc1)c1ccc(C23CC4CC(CC(C4)C2)C3)cc1` [Compound 243], for the setting “Table 2”, the inhibition at 10 µM amounted to 67%.
Same read-out and setting: next, `O=C(O)c1cccnc1Cc1ccc(Nc2ccc(C34CC5CC(CC(C5)C3)C4)cc2Cl)cc1` [Compound 122]: 95%; `Clc1cc(C23CC4CC(CC(C4)C2)C3)ccc1Nc1ccc(Cn2ccnc2)cc1` [Compound 105]: 96%; `COc1ccc(C(=O)O)c(Nc2ccc(Nc3ccc(C45CC6CC(CC(C6)C4)C5)cc3)cc2)c1` [Compound 251]: 27%.
On the same count and under the same terms, for `O=C(Nc1ccc(Nc2ccccc2C(=O)O)cc1)Nc1ccc(C23CC4CC(CC(C4)C2)C3)cc1` [Compound 189] the value was 34%.
Same read-out and setting: for `O=C(O)c1cccnc1Nc1cc(Nc2ccc(C34CC5CC(CC(C5)C3)C4)cc2)cc(C(F)(F)F)c1` [Compound 27] the value was 90%.
In the case of `Cc1cc(N(C)c2ccc(OCC(F)(F)F)cc2)ccc1Nc1cccc(C(=O)O)n1` [CP-646], for the setting “Table 3”, the inhibition at 10 µM was 39%.

What is called inhibition is the drop in the measured response relative to a control, in per cent.

The record behind these values is patent US12187722B2, “Small molecule inhibitors of TEAD transcription factors” (The General Hospital Corporation, priority 2019, dated 2025).
